Measurements reported in PubChem BioAssay (NCI).
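Following 48 hours of exposure in 96-well plates, responses at five concentrations were used to interpolate endpoints linearly. TGI denotes the concentration required for complete inhibition of growth.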

How the values were obtained:
Test in all cases: inhibition of tumour cell growth, NCI panel, 48 h
786-0 renal = tested on: 786-0 renal
CAKI-1 renal = tested on: CAKI-1 renal
COLO 205 colon = tested on: COLO 205 colon
HOP-92 NSCLC = tested on: HOP-92 NSCLC
RPMI-8226 leukemia = tested on: RPMI-8226 leukemia
SF-295 CNS = tested on: SF-295 CNS
SNB-75 CNS = tested on: SNB-75 CNS
SR leukemia = tested on: SR leukemia
TK-10 renal = tested on: TK-10 renal
HOP-18 NSCLC = tested on: HOP-18 NSCLC
SNB-78 CNS = tested on: SNB-78 CNS

| Structure (SMILES) | TGI (786-0 renal) [µM] | TGI (CAKI-1 renal) [µM] | TGI (COLO 205 colon) [µM] | TGI (HOP-92 NSCLC) [µM] | TGI (RPMI-8226 leukemia) [µM] | TGI (SF-295 CNS) [µM] | TGI (SNB-75 CNS) [µM] | TGI (SR leukemia) [µM] | TGI (TK-10 renal) [µM] | TGI (HOP-18 NSCLC) [µM] | TGI (SNB-78 CNS) [µM] |
| --- | --- | --- | --- | --- | --- | --- | --- | --- | --- | --- | --- |
| COc1ccc2c(-c3csc(-c4c[nH]c5ccccc45)n3)c[nH]c2c1 | 18.2 | 32.8 | > 57.7 | 26.4 | > 24.5 | 35.2 | 91.7 | > 100 | 23.5 | – | – |
| O=c1cc(-c2ccccc2)[nH]c2c(F)ccc(F)c12 | > 100 | > 100 | > 100 | > 100 | > 100 | > 100 | 59 | 90.3 | > 100 | > 100 | – |
| COc1ccc(C2=C(N)c3cc(OC)ccc3C2=O)cc1 | > 100 | > 100 | > 100 | > 100 | > 100 | > 100 | > 100 | > 100 | – | – | – |
| Cc1cccc(-c2cc(=O)c3cc(C)cnc3[nH]2)c1 | > 100 | > 100 | 0.382 | > 100 | 30.1 | 0.609 | > 100 | 1.7 | > 100 | – | – |
| CN1CCN(C2CC(=O)c3c(Cl)sc(Cl)c32)CC1 (centres undefined) | 21.8 | 39.6 | > 53.4 | > 27 | 15.5 | > 31.6 | 41.5 | > 100 | > 61 | – | – |
| Cc1nc2cccc(F)c2c(=O)n1-c1nnc(C2CC2)s1 | > 10 | > 10 | > 10 | > 10 | > 10 | > 10 | > 10 | > 10 | > 10 | – | – |
| CN(C)CC(C)(C)C(=O)/C=C/c1ccccc1 | 29.9 | 40.3 | 26.2 | 24.5 | 56.6 | 33.2 | 37.7 | – | 32.1 | 49.8 | 88.6 |
| O=C1CSC(c2cc3cc(Br)ccc3nc2Cl)N1c1ccc(F)c(Cl)c1 (centres undefined) | > 50 | > 50 | > 50 | > 50 | > 50 | > 50 | > 50 | > 50 | > 50 | – | – |
| C/C(=N/NC(=O)c1ccccc1Nc1ccccc1C(=O)N/N=C(\C)c1ccc(C)cc1)c1ccc(C)cc1 | > 100 | > 100 | > 100 | > 100 | > 100 | > 100 | > 100 | > 100 | > 100 | – | – |
| COc1ccc(C2CCc3c(cnc4nc(N)nc(N)c34)C2)cc1 (centres undefined) | 26.8 | > 100 | > 100 | 12.3 | > 100 | > 100 | 26.7 | > 100 | 36 | – | – |
| COc1nc2ncc([C@@H](O)[C@H](O)CO)nc2c(=O)[nH]1 | > 100 | > 100 | > 100 | > 100 | > 100 | > 100 | > 100 | > 100 | > 100 | – | – |
| CC1CC2OC(=N)C1(C#N)C2(C#N)C#N (centres undefined) | 44.9 | 20.5 | 24.8 | 36 | 48 | > 100 | 43.1 | > 100 | 71.6 | – | – |
| N#CC(NNC(=O)c1c(Cl)c(Cl)c(Cl)c(Cl)c1-c1nc2ccc(C(=O)c3ccccc3)cc2[nH]1)c1cccc(Oc2ccccc2)c1 (centres undefined) | 51.4 | > 100 | 46.1 | 48.3 | 91.8 | 96.6 | 72.8 | 54.4 | 95.1 | – | – |
| COC1OC(=O)C(OC)C(OC)C1OC (centres undefined) | > 100 | > 100 | > 100 | > 100 | > 100 | > 100 | > 100 | > 100 | > 100 | – | – |
| CCOC(=O)CCC1(C(=O)O[C@@H]2C[C@H](C)CC[C@H]2C(C)C)CCCCC1=O (some centres undefined) | > 100 | > 100 | > 100 | > 100 | > 100 | > 100 | > 100 | > 100 | > 100 | – | – |
| Cc1nc2ccccc2nc1N1CCCC1 | > 100 | > 100 | > 100 | > 100 | > 100 | > 100 | > 100 | > 100 | > 100 | – | – |
| CC(C)(CO)Nc1c(O)c2c(c(O)c1Cl)C(=O)C=CC2=O | 2.85 | 3.41 | 2.56 | 3.3 | 4.82 | 3.21 | 2.6 | 0.782 | 3.36 | – | – |
| N#Cc1nc(-c2ccccn2)c(-c2ccccn2)nc1C#N | 6.28 | 6.81 | 10.6 | > 45.6 | > 100 | 7.92 | 22.9 | > 33.9 | 17.3 | – | – |
| O=C(CSCC(=O)N/N=C\c1cccc(Br)c1)N/N=C\c1cccc(Br)c1 | 35.5 | 37.1 | > 100 | 47 | – | 29.9 | 39.4 | 66.1 | 24.8 | – | – |
| Cn1c(-c2cccs2)cc(-c2ccsc2)c1-c1ccsc1 | > 100 | > 100 | > 100 | > 100 | – | > 100 | > 100 | > 100 | > 100 | – | – |
